Like-named read-outs stand apart in the source and are kept apart here. Values belong to the molecule of their own block, whether it stands above or below them.
What was measured:
platelet factor 4 = molecular target: T1, platelet factor 4 (Homo sapiens, UniProt P02776); assay: Risk of heparin-induced thrombocytopenia (HIT) / binding to platelet factor 4; details: expected from size (smaller than 12-mers do not bind platelet factor 4)
T1 sequence (P02776 32-101): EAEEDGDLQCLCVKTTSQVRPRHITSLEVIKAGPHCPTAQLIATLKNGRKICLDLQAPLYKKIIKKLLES

FXa = assay: Determination of anti-FXa effect in vivo; design: species or system Lewis rats; details: rat, intravenous; for persistence of anti-FXa effect in vivo: blood drawn 0.5-8 hours
Description: (§1) All studies were performed under an Institutional Animal Care and Use Committee (IACUC)-approved protocol at the University of North Carolina, following Public Health Service guidelines for laboratory animal care and use. Sixteen 400-g Lewis rats were equally divided into four groups. […] Blood was then drawn at specified time points (0.5, 1, 2, 4, 8 hours) after the compounds had been administered, with one sample taken just before administration. 0.8 mL of blood was drawn from the contralateral femoral/saphenous vein into 150 mM citrate at 0.5, 1, 2, 4 and 8 hours following injection of the compounds, with one sample drawn immediately prior to injection. The samples were centrifuged to obtain approximately 400 μL of plasma. The blood samples were subjected to FXa activity analysis. Saline was given periodically subcutaneously to maintain fluid volume.

[1] = Clearance of oligosaccharides from the drug-treated animals (plasma concentration against time); assay type: in vivo, Lewis rats
Description: as §1
Using a calibration curve generated for each compound, the concentration of compound in the reaction mixture was read off for each corresponding FXa activity percentage. The average plasma concentration and standard deviation between the 4 rats in each group were calculated for each time point; these values were used to plot a graph of plasma concentration against time.

antithrombin (AT) [2] = molecular target: T2, antithrombin (AT) (Homo sapiens, UniProt P01008); assay: AT-binding affinity analysis using isothermal titration calorimetry (ITC)
antithrombin (AT) [3] = molecular target: T2, antithrombin (AT); details: reported in a previous publication, method not given, cited from earlier work
antithrombin (AT) [4] = molecular target: T2, antithrombin (AT); details: affinity coelectrophoresis, reported in a previous publication; read-out: Binding affinity (Kd) to AT; cited from earlier work

T2 sequence (P01008 33-464): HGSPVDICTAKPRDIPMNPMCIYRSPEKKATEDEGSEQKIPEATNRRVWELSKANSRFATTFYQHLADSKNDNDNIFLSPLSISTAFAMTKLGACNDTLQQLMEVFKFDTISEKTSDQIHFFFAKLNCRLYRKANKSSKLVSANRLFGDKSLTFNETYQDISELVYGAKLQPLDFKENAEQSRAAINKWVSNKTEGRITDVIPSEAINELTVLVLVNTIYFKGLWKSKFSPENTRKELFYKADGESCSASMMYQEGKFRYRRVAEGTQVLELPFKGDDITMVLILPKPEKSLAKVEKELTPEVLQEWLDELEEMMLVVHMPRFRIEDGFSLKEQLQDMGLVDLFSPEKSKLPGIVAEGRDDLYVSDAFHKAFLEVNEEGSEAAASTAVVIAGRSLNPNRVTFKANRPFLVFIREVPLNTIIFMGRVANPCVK

risk of HIT (platelet factor 4): very low risk of HIT
clearance rate faster than that of fondaparinux ([1]; in a rat or mouse model): at least 50%
Kd (antithrombin (AT) [2]; ITC): 5.1 ± 1.4 nM
binding to AT (in words) (antithrombin (AT) [2]; listed as Compound 5): binds to AT
binding to AT (in words) (antithrombin (AT) [2]; listed as compound 5): binds to AT tightly
SMILES: O=C(O)C1OC(OC2C(COS(=O)(=O)O)OC(OC3C(C(=O)O)OC(OC4C(COS(=O)(=O)O)OC(OC5C(C(=O)O)OC(OC6C(COS(=O)(=O)O)OC(OC7C(C(=O)O)OC(Oc8ccc([N+](=O)[O-])cc8)C(O)C7O)C(NS(=O)(=O)O)C6O)C(OS(=O)(=O)O)C5O)C(NS(=O)(=O)O)C4OS(=O)(=O)O)C(OS(=O)(=O)O)C3O)C(NS(=O)(=O)O)C2O)C(O)C(O)C1OC1OC(COS(=O)(=O)O)C(O)C(O)C1NS(=O)(=O)O (centres unmarked) [Comp 5]
persistence of anti-FXa effect in vivo (FXa): diminished after 4 hours
anti-FXa potency in vivo (FXa; within 30 min after administration): comparable anti-FXa potency to that of fondaparinux and compound 11
clearance in vivo (in words) ([1]; rat, compared with fondaparinux and compound 11): cleared faster from the animal in the first 2 hours

Binding affinity (Kd) to AT (antithrombin (AT) [2]; ITC): No binding
SMILES: O=C(O)C1OC(OC2C(COS(=O)(=O)O)OC(OC3C(C(=O)O)OC(OC4C(COS(=O)(=O)O)OC(OC5C(C(=O)O)OC(Oc6ccc([N+](=O)[O-])cc6)C(O)C5O)C(NS(=O)(=O)O)C4OS(=O)(=O)O)C(OS(=O)(=O)O)C3O)C(NS(=O)(=O)O)C2O)C(O)C(O)C1OC1OC(COS(=O)(=O)O)C(O)C(O)C1NS(=O)(=O)O (centres unmarked) [Comp 2, GlcNS6S-GlcA-GlcNS6S-IdoA2S-GlcNS3S6S-GlcA-pNP]

SMILES: O=C(O)C1OC(OC2C(COS(=O)(=O)O)OC(OC3C(C(=O)O)OC(OC4C(COS(=O)(=O)O)OC(OC5C(C(=O)O)OC(Oc6ccc([N+](=O)[O-])cc6)C(O)C5O)C(NS(=O)(=O)O)C4O)C(OS(=O)(=O)O)C3O)C(NS(=O)(=O)O)C2OS(=O)(=O)O)C(O)C(O)C1OC1OC(COS(=O)(=O)O)C(O)C(O)C1NS(=O)(=O)O (centres unmarked) [GlcA2S-containing 6-mer, GlcNS6S-GlcA-GlcNS3S6S-GlcA2S-GlcNS6S-GlcA-pNP]
Binding affinity (Kd) to AT (antithrombin (AT) [3]): No binding^d

SMILES: O=C(O)C1OC(OC2C(COS(=O)(=O)O)OC(OC3C(C(=O)O)OC(OC4C(COS(=O)(=O)O)OC(OC5C(C(=O)O)OC(Oc6ccc([N+](=O)[O-])cc6)C(O)C5O)C(NS(=O)(=O)O)C4O)C(O)C3O)C(NS(=O)(=O)O)C2OS(=O)(=O)O)C(O)C(O)C1OC1OC(COS(=O)(=O)O)C(O)C(O)C1NS(=O)(=O)O (centres unmarked) [IdoA-containing 6-mer]
Kd (antithrombin (AT) [3]; read-out: Binding affinity (Kd) to AT): 32.6 ± 5.3 nM

Binding affinity (Kd) to AT (antithrombin (AT) [2]; ITC): No binding^c
SMILES: O=C(O)C1OC(OC2C(CO)OC(OC3C(C(=O)O)OC(OC4C(CO)OC(OC5C(C(=O)O)OC(OC6C(CO)OC(OC7C(C(=O)O)OC(Oc8ccc([N+](=O)[O-])cc8)C(O)C7O)C(NS(=O)(=O)O)C6O)C(OS(=O)(=O)O)C5O)C(NS(=O)(=O)O)C4OS(=O)(=O)O)C(OS(=O)(=O)O)C3O)C(NS(=O)(=O)O)C2O)C(O)C(O)C1OC1OC(CO)C(O)C(O)C1NS(=O)(=O)O (centres unmarked) [Comp 4]

SMILES: CC(=O)NC1C(OC2C(C(=O)O)OC(OC3C(COS(=O)(=O)O)OC(OC4C(C(=O)O)OC(OC5C(COS(=O)(=O)O)OC(OC6C(C(=O)O)OC(OC7C(COS(=O)(=O)O)OC(OC8C(C(=O)O)OC(Oc9ccc([N+](=O)[O-])cc9)C(O)C8O)C(NS(=O)(=O)O)C7O)C(OS(=O)(=O)O)C6O)C(NS(=O)(=O)O)C5O)C(OS(=O)(=O)O)C4O)C(NS(=O)(=O)O)C3OS(=O)(=O)O)C(O)C2O)OC(COS(=O)(=O)O)C(O)C1O (centres unmarked) [Comp 11, reference compound]
Kd (antithrombin (AT) [4]): 8 ± 3 nM
persistence of anti-FXa effect in vivo (FXa): persisted after 8 hours

From patent publication US12539311B2, “Short-acting heparin-based anticoagulant compounds and methods” (The University of North Carolina at Chapel Hill, priority 2017, dated 2026)
